Data as given in the supplement of paper PMC11451515.

Test system: SEM cells
Test: cell viability relative to DMSO control; higher = less cytotoxic
Settings: 48 h
Summary of the method: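 Viability was expressed as a per-plate percentage of DMSO wells, with cell-free wells as background. Leukemia cells (NOMO1 or SEM at 500 cells/well, P12-Ichikawa at 1000 cells/well) were adapted for at least four passages in each medium and seeded in 1536-well plates (5 μl). Library compounds in DMSO were pin-dosed over an 11-point threefold series from 47 μM to 0.79 nM, and CellTiter-Glo One luminescence was read after 48 h at 37°C.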

[1] = HPLM + 10% dialyzed FBS, 0.000781 µM
[2] = HPLM + 10% dialyzed FBS, 0.00234 µM
[3] = HPLM + 10% dialyzed FBS, 0.00702 µM
[4] = HPLM + 10% dialyzed FBS, 0.0211 µM
[5] = HPLM + 10% dialyzed FBS, 0.0632 µM
[6] = HPLM + 10% dialyzed FBS, 0.19 µM
[7] = HPLM + 10% dialyzed FBS, 0.569 µM
[8] = HPLM + 10% dialyzed FBS, 1.71 µM
[9] = HPLM + 10% dialyzed FBS, 5.12 µM
[10] = HPLM + 10% dialyzed FBS, 15.4 µM
[11] = HPLM + 10% dialyzed FBS, 46.1 µM
[12] = RPMI 5 mM glucose + 10% FBS, 0.000781 µM
[13] = RPMI 5 mM glucose + 10% FBS, 0.00234 µM
[14] = RPMI 5 mM glucose + 10% FBS, 0.00702 µM
[15] = RPMI 5 mM glucose + 10% FBS, 0.0211 µM
[16] = RPMI 5 mM glucose + 10% FBS, 0.0632 µM
[17] = RPMI 5 mM glucose + 10% FBS, 0.19 µM
[18] = RPMI 5 mM glucose + 10% FBS, 0.569 µM
[19] = RPMI 5 mM glucose + 10% FBS, 1.71 µM
[20] = RPMI 5 mM glucose + 10% FBS, 5.12 µM
[21] = RPMI 5 mM glucose + 10% FBS, 15.4 µM
[22] = RPMI 5 mM glucose + 10% FBS, 46.1 µM
[23] = RPMI 5 mM glucose + 10% dialyzed FBS, 0.000781 µM
[24] = RPMI 5 mM glucose + 10% dialyzed FBS, 0.00234 µM
[25] = RPMI 5 mM glucose + 10% dialyzed FBS, 0.00702 µM
[26] = RPMI 5 mM glucose + 10% dialyzed FBS, 0.0211 µM
[27] = RPMI 5 mM glucose + 10% dialyzed FBS, 0.0632 µM
[28] = RPMI 5 mM glucose + 10% dialyzed FBS, 0.19 µM
[29] = RPMI 5 mM glucose + 10% dialyzed FBS, 0.569 µM
[30] = RPMI 5 mM glucose + 10% dialyzed FBS, 1.71 µM
[31] = RPMI 5 mM glucose + 10% dialyzed FBS, 5.12 µM
[32] = RPMI 5 mM glucose + 10% dialyzed FBS, 15.4 µM
[33] = RPMI 5 mM glucose + 10% dialyzed FBS, 46.1 µM

| SMILES | cell viability [1] | cell viability [2] | cell viability [3] | cell viability [4] | cell viability [5] | cell viability [6] | cell viability [7] | cell viability [8] | cell viability [9] | cell viability [10] | cell viability [11] | cell viability [12] | cell viability [13] | cell viability [14] | cell viability [15] | cell viability [16] | cell viability [17] | cell viability [18] | cell viability [19] | cell viability [20] | cell viability [21] | cell viability [22] | cell viability [23] | cell viability [24] | cell viability [25] | cell viability [26] | cell viability [27] | cell viability [28] | cell viability [29] | cell viability [30] | cell viability [31] | cell viability [32] | cell viability [33] |
| --- | --- | --- | --- | --- | --- | --- | --- | --- | --- | --- | --- | --- | --- | --- | --- | --- | --- | --- | --- | --- | --- | --- | --- | --- | --- | --- | --- | --- | --- | --- | --- | --- | --- |
| Cc1nc(-c2ccc(OCC(C)C)c(C#N)c2)sc1C(=O)O | 110% | 110% | 101% | 120% | 115% | 104% | 122% | 108% | 106% | 110% | 113% | 125% | 112% | 116% | 104% | 105% | 104% | 121% | 105% | 105% | 122% | 124% | 107% | 132% | 121% | 131% | 127% | 111% | 106% | 111% | 126% | 132% | 138% |
| CC(C)(N)c1ccc(-c2nc3ccccc3nc2-c2ccccc2)cc1 | 99.5% | 109% | 117% | 100% | 38.5% | 15.5% | 6.7% | 6.11% | 5.5% | 3.11% | 3.57% | 110% | 103% | 93.7% | 36.2% | 12.4% | 7.19% | 5.88% | 5.02% | 4.24% | 2.31% | 3.42% | 99.5% | 106% | 101% | 86.3% | 17.5% | 10% | 6.06% | 4.9% | 4.26% | 2.44% | 3.2% |
| CCCCc1ccc2[nH]c(NC(=O)OC)nc2c1 | 75.4% | 92.3% | 98.4% | 79.4% | 72.3% | 26.6% | 25.9% | 23.8% | 26.2% | 23% | 16.1% | 80% | 81.5% | 87.2% | 75.5% | 52.4% | 16.4% | 15.6% | 14.5% | 18% | 13.1% | 10.8% | 98.8% | 95.8% | 102% | 77.2% | 56.9% | 23.5% | 18.2% | 20.8% | 23.6% | 19.4% | 12.4% |
| CCNC(=O)CCC/C=C\C[C@@H]1[C@@H](/C=C/C(O)CCc2ccccc2)[C@@H](O)C[C@@H]1O (stereo partly specified) | 96.2% | 116% | 100% | 98.8% | 115% | 104% | 104% | 108% | 108% | 91.2% | 87.4% | 95.4% | 112% | 110% | 98.7% | 118% | 111% | 117% | 118% | 111% | 98.2% | 100% | 89.6% | 117% | 128% | 107% | 120% | 109% | 102% | 106% | 114% | 107% | 81.3% |
| CN1C(=O)/C(=C(NC2=CC=C(I)C=C2F)\C3=C1\N=C/N(C[C@@H](O)CO)C3=O)F | 77.3% | 76.4% | 92.5% | 90.9% | 89.6% | 79.6% | 70.6% | 59.6% | 65.6% | 18.6% | 51.3% | 79.2% | 98.6% | 107% | 91.8% | 74.6% | 73.2% | 53.9% | 60.2% | 68.5% | 12.8% | 30.6% | 77.5% | 71.3% | 90.8% | 93.2% | 69.6% | 64.2% | 54.8% | 54.8% | 53% | 14.2% | 28% |
| CO[C@@H](C(=O)N1Cc2[nH]nc(NC(=O)c3ccc(N4CCN(C)CC4)cc3)c2C1)c1ccccc1 | 95.5% | 84.2% | 103% | 90.9% | 71.1% | 55.6% | 38.4% | 24.6% | 28.3% | 24.3% | 24.9% | 107% | 92.3% | 103% | 94.6% | 59.3% | 38.9% | 23.5% | 20.5% | 19.7% | 15% | 18.7% | 87.9% | 97.1% | 87.4% | 90.7% | 59.8% | 39.5% | 32.2% | 20.2% | 25.1% | 20% | 16.4% |
| CC(C)C1CCC(C(=O)N[C@H](Cc2ccccc2)C(=O)O)CC1 (stereo partly specified) | 92.5% | 93.8% | 91.7% | 108% | 71.1% | 26.3% | 82.7% | 97.6% | 85.2% | 80.3% | 78.5% | 108% | 94.1% | 90% | 112% | 80.9% | 21.2% | 62.7% | 85.6% | 98% | 95.4% | 77.8% | 108% | 104% | 103% | 102% | 75.4% | 21.7% | 84.3% | 88.7% | 98.5% | 93.1% | 96.8% |
| CN1C(=O)c2sccc2N(C)c2nc(Nc3ccc([S+](N)(=O)[O-])cc3)ncc21 | 94.1% | 93.2% | 103% | 102% | 89.2% | 99.6% | 88.7% | 67.8% | 21.9% | 9.56% | 3.55% | – | – | – | – | – | – | – | – | – | – | – | 112% | 101% | 106% | 105% | 95.6% | 91.4% | 93.7% | 63.6% | 14.8% | 8.42% | 4.39% |
| CCCN[C@H]1CCc2nc(N)sc2C1 | 93.2% | 42% | 98.4% | 98.8% | 104% | 96.4% | 95.4% | 99.2% | 104% | 99.8% | 105% | 91.7% | 39.1% | 99.4% | 87.3% | 96.2% | 98.9% | 103% | 97.6% | 85.6% | 105% | 104% | 89.2% | 37.6% | 98.3% | 101% | 119% | 125% | 106% | 105% | 112% | 111% | 91.4% |
| COc1c(Cl)cc2c([nH]c3cnccc32)c1NC(=O)c1cccnc1C | 100% | 116% | 119% | 92% | 114% | 103% | 118% | 108% | 107% | 103% | 84.8% | – | – | – | – | – | – | – | – | – | – | – | 93.6% | 95.3% | 108% | 97.5% | 110% | 107% | 101% | 125% | 106% | 105% | 90.1% |
| COc1cc(C(=O)NC2CCN(C)CC2)ccc1Nc1ncc2c(n1)N(C1CCCC1)CCC(=O)N2C(C)C | 81.4% | 95.1% | 119% | 104% | 105% | 112% | 6.04% | 104% | 94.8% | 59.1% | 13.5% | 95.4% | 106% | 119% | 130% | 119% | 120% | 6.08% | 98.1% | 96.5% | 54.2% | 55.1% | 83.4% | 109% | 117% | 120% | 112% | 111% | 5.18% | 102% | 96.5% | 53.8% | 60.8% |
| CCC(CCCC)COC(=O)C(\C#N)=C(\c1ccccc1)c2ccccc2 (stereo unspecified) | 91.6% | 55.3% | 90.3% | 89.3% | 98.8% | 93.9% | 95.9% | 90.6% | 110% | 99.6% | 86.3% | 79.8% | 44% | 99% | 86.1% | 94.1% | 96.6% | 96.2% | 97.8% | 95.6% | 91.6% | 88.9% | 88.3% | 46.3% | 103% | 99.7% | 99.9% | 90.3% | 107% | 86% | 91.5% | 106% | 107% |
| Cc1cc(Nc2cc(N3CCN(C)CC3)nc(/C=C/c3ccccc3)n2)n[nH]1 | 83.9% | 109% | 112% | 96.5% | 95.4% | 60.3% | 36.6% | 6.67% | 5.57% | 4.53% | 5.51% | 86.5% | 108% | 94.1% | 112% | 93.8% | 60.6% | 29.5% | 5.23% | 4.53% | 3.57% | 4.68% | 100% | 112% | 97.1% | 112% | 95.3% | 57.8% | 28.2% | 6.13% | 4.41% | 3.5% | 5.17% |
| Clc2cccc(Cl)c2\N=C1/NCCN1 | 76.6% | 98.6% | 28.8% | 105% | 90.8% | 116% | 119% | 108% | 114% | 122% | 113% | 92.7% | 103% | 9.62% | 119% | 106% | 115% | 105% | 112% | 112% | 119% | 110% | 93.3% | 116% | 28.5% | 126% | 131% | 132% | 127% | 130% | 131% | 117% | 138% |
| CC(C)(N)C(=O)N[C@H](COCc1ccccc1)C(=O)N1CCC2(CC1)CN([S+](C)(=O)[O-])c1ccccc12 | – | – | – | – | – | – | – | – | – | – | – | 124% | 127% | 122% | 155% | 130% | 130% | 139% | 121% | 114% | 91.9% | 36.8% | – | – | – | – | – | – | – | – | – | – | – |
